The values that follow come from PMC6337631, “Effective Tetradentate Compound Complexes against Leishmania spp. that Act on Critical Enzymatic Pathways of These Parasites” (Molecules, 2018).

The subject of test [1] is Leishmania infantum promastigote forms. As to the kind of experiment: Promastigote test (extracellular forms), L. infantum. The test is classed as cell-based. As to conditions: 72 h, 100 µM to 1 µM, mean ± SD of four determinations. The method, then:
(§1) Promastigote forms of three different Leishmania spp., L. donovani (MHOM/PE/84/LC26), L. infantum (MCAN/ES/2001/UCM-10) and L. braziliensis (MHOM/BR/1975/M2904), were cultured in vitro in Medium Trypanosomes Liquid (MTL) supplemented with 10% inactivated foetal calf serum (FCS) in an air atmosphere at 28 °C, in Roux flasks (Corning, Manassas, VA, USA) with a surface area of 75 cm^2, according to [33].
(§2) The compounds and the reference drug Glu were dissolved in DMSO (Panreac, Barcelona, Spain) and tested from 100 µM to 1 µM with 0.1% (v/v) DMSO final concentration in plates. Therefore, controls were prepared including 0.1% (v/v) of this component, as previously described.
(§3) Promastigote forms were collected in the exponential growth phase and seeded at 1 × 10^5 parasites/mL in 24-well microplates (Nunc, Naperville, IL, USA), after adding each compound at concentrations from 100 µM to 1 µM and cultured in 500 μL/well volumes at 28 °C. After 72 h incubation, the leishmanicidal activity was assessed using a Neubauer haemocytometric chamber in comparison with the control cultures. […] Each drug concentration was tested in triplicate in four separate determinations.

Test [2] concerns Leishmania infantum amastigote forms. The test can be described thus: Amastigote test (intracellular forms in J774.2 macrophages), L. infantum. In kind it is cell-based. The conditions noted are these: 72 h, mean ± SD. The method, then: as §1, §2
(§4) J774.2 macrophages were grown and seeded at a density of 1 × 10^4 cells/well in 24-well microplates (Nunc) with rounded coverslips on the bottom and cultured for 48 h in humidified 95% air, 5% CO2 atmosphere at 37 °C in Minimal Essential Medium (MEM) with 2 mM glutamine and 20% (v/v) inactivated FCS. Adherent macrophages were infected with metacyclic promastigotes in the stationary growth phase of L. donovani, L. infantum and L. braziliensis at a multiplicity of infection (MOI) ratio of 1:10 and maintained for 24 h. Non-phagocytosed parasites were removed by washing, and after addition of the testing compounds at concentrations from 100 µM to 1 µM, cultured in 500 μL/well volumes. Control cultures were also included. After 72 h incubation, leishmanicidal activity was assessed based on the number of amastigotes in treated and untreated cultures in methanol-fixed and Giemsa-stained preparations by analyzing 500 host cells distributed in randomly chosen microscopic fields. The leishmanicidal effect was calculated as described to determine the leishmanicidal activity in the promastigote forms. Each drug concentration was tested in triplicate in four separate determinations.

Test [3] deals with Leishmania braziliensis promastigote forms. As to the kind of experiment: Promastigote test (extracellular forms), L. braziliensis. The test is classed as cell-based. As to conditions: 72 h, 100 µM to 1 µM, mean ± SD. The method, then: as §1, §2, §3
In test [4] the test system is Leishmania braziliensis amastigote forms. As to the kind of experiment: Amastigote test (intracellular forms in J774.2 macrophages), L. braziliensis. The conditions noted are these: 72 h, mean ± SD. In kind it is cell-based. The method, then: as §1, §2, §4
In test [5] the test system is Leishmania donovani promastigote forms. The test can be described thus: Promastigote test (extracellular forms), L. donovani. The test is classed as cell-based. As to conditions: 72 h, 100 µM to 1 µM, mean ± SD. How it is done:
as §1, §2, §3

For test [6], the system named is Leishmania donovani amastigote forms. The test can be described thus: Amastigote test (intracellular forms in J774.2 macrophages), L. donovani. The test is classed as cell-based. As to conditions: 72 h, mean ± SD. The method, then: as §1, §2, §4
In test [7] the test system is J774.2 murine macrophages. As to the kind of experiment: Cytotoxicity test on macrophages by flow cytometry. In kind it is cell-based, mouse. As to conditions: J774.2 macrophages, 72 h, read-out: Toxicity IC50 Macrophage. The method, then:
as §2
The macrophage line J774.2 [European collection of cell cultures (ECACC) number 91051511] was derived in 1968 from a tumour in a female BALB/c mouse. Macrophages were grown in humidified 95% air, 5% CO2 atmosphere at 37 °C in Minimal Essential Medium (MEM) with 2 mM glutamine and 20% (v/v) inactivated FCS. The cytotoxicity test on macrophages was performed by Flow cytometry analysis according to a method previously described. Briefly, cells were seeded at a density of 5 × 10^4 cells/well in 24-well microplates (Nunc, Naperville, IL, USA). After 48 h incubation, the medium was removed, and fresh medium was added together with each test compound at concentrations from 100 µM to 1 µM and cultured in 500 μL/well volumes for 72 h. Thereafter, cells were recovered by centrifugation, and cell viability was determined by Flow cytometry (FACS Vantage flow cytometer, Becton Dickinson, San Jose, CA, USA) after incubating the cells with propidium iodide ([…]) and fluorescein diacetate (100 ng/mL). The percentage of viability was calculated in comparison with the control cultures. […] Each drug concentration was tested in triplicate in four separate determinations.

Test [8] concerns Leishmania braziliensis infection of J774.2 macrophages. As to the kind of experiment: Infectivity assay, L. braziliensis. The test is classed as cell-based. The conditions noted are these: IC25 concentration; last day of the experiment (day 10). The method, then: (§5) After the initial in vitro studies we were interested in finding out if the six most leishmanicidal compounds could also prevent the infection of host cells. For this reason, we conducted an assay in which the J774.2 macrophages were exposed to the metacyclic promastigotes and the compound at IC25 concentration at the same time. The propagation of the parasitic infection was determined by measuring the infection rate and the average number of amastigotes per macrophage cell present during the 10-day treatment period. In addition, the endocytic (short-time of infection) and infection (long-time of infection) indexes were calculated.
(§6) Adherent macrophages were grown, seeded and infected with metacyclic promastigotes as mentioned above. The compounds at IC25 concentrations (calculated using linear regression analysis from the Kc values of the concentrations employed) were added immediately after infection and incubation was performed for 12 h at 37 °C in humidified 95% air, 5% CO2 atmosphere. in humidified 95% air, 5% CO2 atmosphere at 37 °C Non-phagocytosed parasites and drugs were removed by washing, and then the infected cultures were grown for 10 days, adding fresh culture medium every 48 h, according to [35]. Amastigotes per macrophage count was determined in methanol-fixed and Giemsa-stained preparations as mentioned above every 48 h. […]

In test [9] the test system is Leishmania infantum infection of J774.2 macrophages. The test can be described thus: Infectivity assay, L. infantum. The test is classed as cell-based. The conditions noted are these: IC25 concentration; 10-day infectivity assay. The method, then:
as §5, §6

The next test deals with T1, human CuZn-SOD (Homo sapiens, UniProt P00441).
T1 construct: purchased Sigma Chemical Co. (St. Louis, MO, USA)
As to the kind of experiment: SOD inhibition assay, human CuZn-SOD. In kind it is biochemical. The conditions noted are these: assayed 100 µM to 0.1 µM; non-linear regression. How it is done: The previous extraordinary results prompted us to evaluate the inhibitory effect of 3, 5–8 and 10 on the SOD activity. […]
Parasite cells were collected in the exponential growth phase by centrifugation (400g for 10 min). The pellet obtained after centrifugation was lysated by sonication, processed according to [38] and obtained the homogenate fraction which contained the parasite Fe-SOD. The protein content was quantified using the Sigma Bradford test, which uses BSA as a standard (no trace ability was certified for the BSA standard). Superoxide dismutase activities were determined using a method previously described, which measures the reduction in nitrobluetetrazolium (NBT) by superoxide ions. Human CuZn-SOD. Substrates used in these assays were obtained from Sigma Chemical Co. (St. Louis, MO, USA). Resulting data were analysed using the Newman−Keuls test.

In test [10] the test system is L. braziliensis promastigotes. As to the kind of experiment: Ultrastructural alterations by TEM, L. braziliensis. The test is classed as cell-based, Leishmania braziliensis. As to conditions: 72 h at IC25 concentration. The method, then: (§7) Parasites were cultured at a density of 5 × 10^5 cells/mL with medium containing the tested compounds at IC25 concentrations. After 72 h at 28 °C, the cultures were processed using a technique previously described and analysed by TEM (LIBRA 120 PLUS, Zeiss, Barcelona, Spain).

In test [11] the test system is L. donovani promastigotes. As to the kind of experiment: Ultrastructural alterations by TEM, L. donovani. In kind it is cell-based, Leishmania donovani. The conditions noted are these: 72 h at IC25 concentration. The method, then: as §7
Test [12] has as its system L. infantum promastigotes. The test can be described thus: Ultrastructural alterations by TEM, L. infantum. The test is classed as cell-based, Leishmania infantum. The conditions noted are these: 72 h at IC25 concentration. The method, then:
as §7

Read-outs that look alike come from different tables or passages of the source.

T1 sequence (P00441 whole entry): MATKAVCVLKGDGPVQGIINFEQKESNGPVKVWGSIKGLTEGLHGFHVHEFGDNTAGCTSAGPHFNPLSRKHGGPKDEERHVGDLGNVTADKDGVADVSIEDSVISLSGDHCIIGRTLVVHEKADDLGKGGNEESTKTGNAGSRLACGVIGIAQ

Turning to “meglumine antimoniate [Glucantime, reference compound]”, the IC50 in test [1] amounted to 18 ± 3.1 µM; in test [2], 24.2 ± 2.6 µM; in [3], 25.6 ± 1.6 µM; in test [4], 30.4 ± 6.1 µM; in [5] it was 27.3 ± 4.3 µM; in test [6] it was 33.3 ± 3.7 µM. Further, the IC50 in test [7] worked out at 15.2 ± 1.3 µM. In [8], the “percentage of decrease in infection rate in comparison to the control, L. braziliensis” value was 36%.
Consider `CN(Cc1ccccn1)C1CCCCC1N(C)Cc1ccccn1` (centres unmarked) [Compound 8], for which the concentration for half-maximal inhibition (IC50) in test [1] (Leishmania infantum) came to 83 ± 9.9 µM; in [2] (Leishmania infantum), 22.5 ± 3.1 µM; in [3] (Leishmania braziliensis), 73.8 ± 3.6 µM; in test [4] (Leishmania braziliensis), 21.7 ± 1.4 µM; in test [5] (Leishmania donovani), 31.7 ± 2.4 µM; in test [6] (Leishmania donovani), 1.9 ± 0.3 µM. The IC50 in [7] (Mus musculus) was 268 ± 16.2 µM; against human CuZn-SOD, greater than 250 µM. The “day at which the decline in the infection rate appeared, L. infantum” value in [9] amounted to 0.5 days. The “ultrastructural alterations of L. braziliensis promastigotes (TEM)” value in test [10] was “round and lacked in ribosomes”. For the same compound, the “ultrastructural alterations of L. donovani promastigotes (TEM)” value in test [11] is “expanded and disperse Golgi apparatus”. The “ultrastructural alterations of L. infantum promastigotes (TEM)” value in test [12] was “most destructive compounds”.
Turning to `c1ccc(CN2CCN(Cc3ccccn3)CCN(Cc3ccccn3)CC2)nc1` [Compound 10], the IC50 in test [1] (Leishmania infantum) was found to be 2.6 ± 0.7 µM; in [2] (Leishmania infantum), 10.4 ± 0.1 µM; in test [3] (Leishmania braziliensis), 5.5 ± 0.8 µM; in test [4] (Leishmania braziliensis), 11.9 ± 0.8 µM; in test [5] (Leishmania donovani) it was 18.6 ± 0.9 µM; in [6] (Leishmania donovani), 11.6 ± 3.3 µM. The IC50 in [7] (Mus musculus) was 126 ± 7.1 µM; at human CuZn-SOD it was greater than 300 µM. In addition, the “ultrastructural alterations of L. braziliensis promastigotes (TEM)” value in test [10] is “shrunken or dehydrated”. Besides, the “ultrastructural alterations of L. donovani promastigotes (TEM)” value in test [11] is “most lethal end result”. Besides, the “ultrastructural alterations of L. infantum promastigotes (TEM)” value in test [12] is listed as “most destructive compounds”.
As for `CN1CCN(C)CCN(Cc2ccccn2)CC1` [Compound 9], the IC50 worked out at 71.7 ± 10 µM in test [1] (Leishmania infantum); 33.4 ± 3.2 µM in test [2] (Leishmania infantum); 53.2 ± 3.6 µM in test [3] (Leishmania braziliensis); 30.7 ± 2.5 µM in test [4] (Leishmania braziliensis); 29.5 ± 3.6 µM in [5] (Leishmania donovani); 14.5 ± 2.7 µM in test [6] (Leishmania donovani). The IC50 in test [7] (Mus musculus) stood at 100 ± 4.8 µM.
`CN1CCN(C)CCN(Cc2ccccn2)CC1.O=S(=O)([O-])C(F)(F)F.O=S(=O)([O-])C(F)(F)F.[Fe+2]` [Compound 1]: the IC50 in [1] is 18.5 ± 1.6 µM; in test [2], 20.5 ± 1.8 µM; in test [3] it was 22.3 ± 0.6 µM; in test [4] it was 21.3 ± 0.9 µM; in test [5] it was 28.6 ± 5.8 µM; in test [6], 12.5 ± 2.7 µM. In test [7], the IC50 was determined as 37.9 ± 4.2 µM.
Turning to `CN1CCN(C)CCN(CCN2CCN(C)CCN(C)CC2)CC1` [Compound 11, TACN2], the IC50 in test [1] (Leishmania infantum) turned out to be 87.5 ± 5.1 µM; in [2] (Leishmania infantum) it was 34.6 ± 2.5 µM; in test [3] (Leishmania braziliensis), 60.6 ± 3.8 µM; in test [4] (Leishmania braziliensis), 30.4 ± 1.3 µM; in test [5] (Leishmania donovani), 29.5 ± 4.1 µM; in [6] (Leishmania donovani), 19.8 ± 2.6 µM. Besides, the IC50 in [7] (Mus musculus) stood at 75.1 ± 4.7 µM.
In the case of “[Fe^II2(TACN2)(CH3CN)6](ClO4)4 [Compound 2]”, the IC50 amounted to 52.6 ± 3.1 µM in test [1]; 57.5 ± 2.6 µM in test [2]; 37.2 ± 1.9 µM in [3]; 12.5 ± 1.5 µM in test [4]; 19.7 ± 1.7 µM in test [5]; 16.3 ± 2.5 µM in test [6]. Also, the half-maximal inhibitory concentration (IC50) in test [7] is 106 ± 8.8 µM.
